# Read-outs that look alike come from different tables or passages of the source.
# Assay: TD-6450 phase I clinical study (SAD/MAD): pharmacokinetics
# Format: in vivo, human
# Conditions: human
# Experimental: Primary and secondary outcomes were pre-defined as follows: Safety and tolerability as a primary outcome, pharmacokinetics as a secondary outcome. Safety and tolerability were evaluated using standard measures, including adverse event (AE) monitoring, clinical laboratory tests (hematology, serum chemistry, coagulation, and urinalysis), vital signs, physical examinations, and 12-lead electrocardiograms (ECGs). […]
# This study was conducted in two parts, Part A (SAD) and Part B (MAD). For the Part A, the age of enrolled subjects ranged from 20 to 60 years, with a mean age range of 32.1 to 46.2 years. Most subjects were male (73 total subjects) and most were white (55 subjects) or black (22 subjects). For Part B of the study, ages ranged from 23 to 60 years with a similar mean age across treatment groups. Most subjects were male (25 total subjects) and all were either white (18 subjects) or black (12 subjects). For each part of the study, the mean body mass index (BMI) and creatinine clearance were similar across treatment groups. […] Part A: Healthy subjects were sequentially enrolled and randomly assigned to each dose cohort (up to 10 dose-ascending cohorts were planned, including a fed arm in the food effect cohort) to receive either a single dose of TD-6450 or placebo. For each dose cohort, 8 subjects were randomized in a 3:1 ratio (6 subjects received TD-6450 and 2 subjects received placebo). The starting dose of TD-6450 was 0.5 mg with a planned maximum dose of 1000 mg. Upon review of the 500-mg cohort PK data, the decision was made to not escalate to the 1000-mg cohort because of exposure saturation at ≥ 500 mg. The following doses were administered: 0.5 mg, 1.5 mg, 5 mg, 15 mg, 30 mg, 60 mg, 120 mg, 240 mg, and 500 mg. Part B: Healthy subjects were sequentially enrolled in 3 ascending dose cohorts (TD-6450 60 mg, 120 mg, and 240 mg) and randomly assigned to receive either TD-6450 or placebo as once daily doses for 14 days. For each dose cohort, 10 subjects were randomized in a 4:1 ratio (8 subjects received TD-6450 and 2 subjects received placebo). Blinded safety, tolerability, and available PK data after each dose cohort were reviewed by the Safety Data Review Committee (SDRC) before escalation to the next dosing cohort for both part A and B. Subjects of the clinical study were randomly assigned to each cohort. Randomizations codes were assigned to the subjects. All study subjects, study investigators, and the sponsor’s staff involved in the conduct of the study were blinded to treatment assignment. The only personnel who had access to the randomization code before database lock were: The pharmacist or pharmacy staff member who prepared drug or placebo capsules for administration to the subject according to the randomization code and the bioanalytical contract laboratory that analyzed the PK samples (plasma and urine).
compound,measurement,setting,value
CNC(=O)N1C[C@@H](C)N(c2ccc(C(=O)Nc3ccc(-c4ccc(-c5c[nH]c([C@@H]6CCCN6C(=O)[C@@H](NC(=O)OC)C(C)C)n5)cc4)c(OC(F)(F)F)c3)cn2)C[C@@H]1C [TD-6450],concentration at 144 h,"female, plasma, oral, 15 mg, Female subjects, SAD arm NCT02022306, Dose 15.00, 144 Hours, read-out: Concentration",4 ng/mL
same,concentration at 168 h,"female, plasma, oral, 15 mg, Female subjects, SAD arm NCT02022306, Dose 15.00, 168 Hours, read-out: Concentration",3.58 ng/mL
same,concentration at 3 h,"female, plasma, oral, 30 mg, Female subjects, SAD arm NCT02022306, Dose 30.00, 3 Hours, read-out: Concentration",24.8 ng/mL
same,concentration at 4 h,"female, plasma, oral, 30 mg, Female subjects, SAD arm NCT02022306, Dose 30.00, 4 Hours, read-out: Concentration",40.6 ng/mL
same,concentration at 6 h,"female, plasma, oral, 30 mg, Female subjects, SAD arm NCT02022306, Dose 30.00, 6 Hours, read-out: Concentration",70.6 ng/mL
same,concentration at 8 h,"female, plasma, oral, 30 mg, Female subjects, SAD arm NCT02022306, Dose 30.00, 8 Hours, read-out: Concentration",69.5 ng/mL
same,concentration at 12 h,"female, plasma, oral, 30 mg, Female subjects, SAD arm NCT02022306, Dose 30.00, 12 Hours, read-out: Concentration",45.3 ng/mL
same,concentration at 15 min,"female, plasma, oral, 30 mg, Female subjects, SAD arm NCT02022306, Dose 30.00, 15 Minutes, read-out: Concentration",0 ng/mL
same,concentration at 24 h,"female, plasma, oral, 30 mg, Female subjects, SAD arm NCT02022306, Dose 30.00, 24 Hours, read-out: Concentration",34.1 ng/mL
same,concentration at 48 h,"female, plasma, oral, 30 mg, Female subjects, SAD arm NCT02022306, Dose 30.00, 48 Hours, read-out: Concentration",22.3 ng/mL
same,concentration at 72 h,"female, plasma, oral, 30 mg, Female subjects, SAD arm NCT02022306, Dose 30.00, 72 Hours, read-out: Concentration",16.1 ng/mL
same,concentration at 96 h,"female, plasma, oral, 30 mg, Female subjects, SAD arm NCT02022306, Dose 30.00, 96 Hours, read-out: Concentration",10.8 ng/mL
same,concentration at 120 h,"female, plasma, oral, 30 mg, Female subjects, SAD arm NCT02022306, Dose 30.00, 120 Hours, read-out: Concentration",9.27 ng/mL
same,concentration at 144 h,"female, plasma, oral, 30 mg, Female subjects, SAD arm NCT02022306, Dose 30.00, 144 Hours, read-out: Concentration",6.93 ng/mL
same,concentration at 168 h,"female, plasma, oral, 30 mg, Female subjects, SAD arm NCT02022306, Dose 30.00, 168 Hours, read-out: Concentration",5.12 ng/mL
same,concentration at 1 h,"female, plasma, oral, 60 mg, Female subjects, SAD arm NCT02022306, Dose 60.00, 1 Hour, read-out: Concentration",7.46 ng/mL
same,concentration at 2 h,"female, plasma, oral, 60 mg, Female subjects, SAD arm NCT02022306, Dose 60.00, 2 Hours, read-out: Concentration",114 ng/mL
same,concentration at 3 h,"female, plasma, oral, 60 mg, Female subjects, SAD arm NCT02022306, Dose 60.00, 3 Hours, read-out: Concentration",70.5 ng/mL
same,concentration at 4 h,"female, plasma, oral, 60 mg, Female subjects, SAD arm NCT02022306, Dose 60.00, 4 Hours, read-out: Concentration",94.5 ng/mL
same,concentration at 6 h,"female, plasma, oral, 60 mg, Female subjects, SAD arm NCT02022306, Dose 60.00, 6 Hours, read-out: Concentration",109 ng/mL
same,concentration at 8 h,"female, plasma, oral, 60 mg, Female subjects, SAD arm NCT02022306, Dose 60.00, 8 Hours, read-out: Concentration",87.4 ng/mL
same,concentration at 12 h,"female, plasma, oral, 60 mg, Female subjects, SAD arm NCT02022306, Dose 60.00, 12 Hours, read-out: Concentration",60.5 ng/mL
same,concentration at 15 min,"female, plasma, oral, 60 mg, Female subjects, SAD arm NCT02022306, Dose 60.00, 15 Minutes, read-out: Concentration",0 ng/mL
same,concentration at 24 h,"female, plasma, oral, 60 mg, Female subjects, SAD arm NCT02022306, Dose 60.00, 24 Hours, read-out: Concentration",38.9 ng/mL
same,concentration at 30 min,"female, plasma, oral, 60 mg, Female subjects, SAD arm NCT02022306, Dose 60.00, 30 Minutes, read-out: Concentration",0.74 ng/mL
same,concentration at 48 h,"female, plasma, oral, 60 mg, Female subjects, SAD arm NCT02022306, Dose 60.00, 48 Hours, read-out: Concentration",29.3 ng/mL
same,concentration at 72 h,"female, plasma, oral, 60 mg, Female subjects, SAD arm NCT02022306, Dose 60.00, 72 Hours, read-out: Concentration",22.4 ng/mL
same,concentration at 96 h,"female, plasma, oral, 60 mg, Female subjects, SAD arm NCT02022306, Dose 60.00, 96 Hours, read-out: Concentration",17.2 ng/mL
same,concentration at 120 h,"female, plasma, oral, 60 mg, Female subjects, SAD arm NCT02022306, Dose 60.00, 120 Hours, read-out: Concentration",12.8 ng/mL
same,concentration at 144 h,"female, plasma, oral, 60 mg, Female subjects, SAD arm NCT02022306, Dose 60.00, 144 Hours, read-out: Concentration",11.1 ng/mL
same,concentration at 168 h,"female, plasma, oral, 60 mg, Female subjects, SAD arm NCT02022306, Dose 60.00, 168 Hours, read-out: Concentration",8.61 ng/mL
same,concentration at 3 h,"in vivo, 1.5 mg, Male subjects, SAD arm NCT02022306, Dose 1.50, 3 Hours, read-out: Concentration",1.48 ng/mL
same,concentration at 4 h,"in vivo, 1.5 mg, Male subjects, SAD arm NCT02022306, Dose 1.50, 4 Hours, read-out: Concentration",1.92 ng/mL
same,concentration at 6 h,"in vivo, 1.5 mg, Male subjects, SAD arm NCT02022306, Dose 1.50, 6 Hours, read-out: Concentration",1.07 ng/mL
same,concentration at 120 h,"in vivo, 5 mg, Female subjects, SAD arm NCT02022306, Dose 5.00, 120 Hours, read-out: Concentration",1.07 ng/mL
same,concentration at 48 h,"in vivo, 5 mg, Male subjects, SAD arm NCT02022306, Dose 5.00, 48 Hours, read-out: Concentration",1.81 ng/mL
same,concentration at 120 h,"in vivo, 5 mg, Male subjects, SAD arm NCT02022306, Dose 5.00, 120 Hours, read-out: Concentration",1.48 ng/mL
same,concentration at 168 h,"in vivo, 15 mg, Male subjects, SAD arm NCT02022306, Dose 15.00, 168 Hours, read-out: Concentration",2.59 ng/mL
same,concentration at 2 h,"in vivo, 30 mg, Male subjects, SAD arm NCT02022306, Dose 30.00, 2 Hours, read-out: Concentration",8.22 ng/mL
same,concentration at 30 min,"in vivo, 120 mg, Male subjects, SAD arm NCT02022306, Dose 120.00, 30 Minutes, read-out: Concentration (ng/ml)",1.01 ng/mL
same,concentration at 168 h,"in vivo, 120 mg, Male subjects, SAD arm NCT02022306, Dose 120.00, 168 Hours, read-out: Concentration (ng/ml)",10.2 ng/mL
same,concentration at 312 h,"in vivo, 240 mg, Male subjects, SAD arm NCT02022306, Dose 240.00, 312 Hours, read-out: Concentration (ng/ml)",4.88 ng/mL
same,TD-6450 concentration,"in vivo, 48 h",107.00 ng/mL
same,TD-6450 concentration,"in vivo, 72 h",273.00 ng/mL
same,TD-6450 concentration,"in vivo, 96 h",123.00 ng/mL
same,TD-6450 concentration,"in vivo, 120 h",102.00 ng/mL
same,TD-6450 concentration,"in vivo, 144 h",74.40 ng/mL
same,TD-6450 concentration,"in vivo, 336 h",6.38 ng/mL
same,Cmax,"plasma, oral, 60 mg, SAD 60 mg, read-out: Cmax Mean ± SD",123 ± 60.3 nM
same,half-life,"plasma, oral, 60 mg, SAD 60 mg, read-out: t1/2 Mean ± SD (converted)",61.4 ± 11.8 h
same,TD-6450 concentration,"male, in vivo",0.00 ng/mL
same,TD-6450 concentration,"male, in vivo, 2 h",179.00 ng/mL
same,TD-6450 concentration,"male, in vivo, 3 h",273.00 ng/mL
same,TD-6450 concentration,"male, in vivo, 4 h",303.00 ng/mL
same,TD-6450 concentration,"male, in vivo, 6 h",309.00 ng/mL
same,TD-6450 concentration,"male, in vivo, 12 h",216.00 ng/mL
same,TD-6450 concentration,"male, in vivo, 24 h",144.00 ng/mL
same,TD-6450 concentration,"male, in vivo, 48 h",90.40 ng/mL
same,TD-6450 concentration,"male, in vivo, 72 h",61.10 ng/mL
same,TD-6450 concentration,"male, in vivo, 96 h",40.80 ng/mL

# From publication PMC10082216 (Nature Communications, 2023)
